Assay results: BindingDB's records for doi:10.1038/nchembio.1629 (George Washington University, 2014)

Assays:
Aurora kinase C = molecular target: T1, Aurora kinase C (Homo sapiens, UniProt Q9UQB9); assay: Selectivity screening
T1 sequence (Q9UQB9 whole entry): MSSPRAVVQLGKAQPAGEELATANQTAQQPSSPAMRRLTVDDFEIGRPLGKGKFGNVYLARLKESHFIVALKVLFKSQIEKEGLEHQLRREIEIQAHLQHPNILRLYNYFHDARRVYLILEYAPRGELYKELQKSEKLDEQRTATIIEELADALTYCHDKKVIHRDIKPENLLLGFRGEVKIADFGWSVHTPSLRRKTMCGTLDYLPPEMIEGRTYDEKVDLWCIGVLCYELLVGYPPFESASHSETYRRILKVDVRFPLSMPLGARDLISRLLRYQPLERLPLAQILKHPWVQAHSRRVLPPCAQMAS
Method: (§1) The IC50 values of selected kinases were determined using either Z'LYTE, Adapta or LanthaScreen assays.

[1] = molecular target: Casein kinase II subunit alpha' (Homo sapiens, UniProt P19784); assay: Selectivity screening
Sequence of Casein kinase II subunit alpha' (P19784 whole entry): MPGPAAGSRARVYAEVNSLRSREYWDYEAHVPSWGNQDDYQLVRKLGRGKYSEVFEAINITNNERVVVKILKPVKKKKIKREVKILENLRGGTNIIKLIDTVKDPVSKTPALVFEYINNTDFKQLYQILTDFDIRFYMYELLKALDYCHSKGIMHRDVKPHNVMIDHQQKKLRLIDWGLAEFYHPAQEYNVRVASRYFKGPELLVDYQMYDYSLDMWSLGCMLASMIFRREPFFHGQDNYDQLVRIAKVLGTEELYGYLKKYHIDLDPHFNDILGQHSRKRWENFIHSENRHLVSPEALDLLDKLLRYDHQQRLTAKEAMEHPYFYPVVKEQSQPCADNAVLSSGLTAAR
Method: as §1

[2] = molecular target: T2, Dual specificity mitogen-activated protein kinase kinase 3 (Homo sapiens, UniProt P46734); assay: Selectivity screening
T2 sequence (P46734 whole entry): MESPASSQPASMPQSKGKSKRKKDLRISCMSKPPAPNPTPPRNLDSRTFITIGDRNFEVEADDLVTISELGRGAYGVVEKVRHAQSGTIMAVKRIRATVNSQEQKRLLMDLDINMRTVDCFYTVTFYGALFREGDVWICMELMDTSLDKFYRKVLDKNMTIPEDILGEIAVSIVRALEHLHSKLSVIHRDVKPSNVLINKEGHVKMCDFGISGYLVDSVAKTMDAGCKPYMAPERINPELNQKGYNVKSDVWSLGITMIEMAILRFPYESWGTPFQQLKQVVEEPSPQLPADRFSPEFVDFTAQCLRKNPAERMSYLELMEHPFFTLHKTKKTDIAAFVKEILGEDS
Method: as §1

[3] = molecular target: Dual specificity protein kinase CLK1 (Homo sapiens, UniProt P49759); assay: Selectivity screening
Sequence of Dual specificity protein kinase CLK1 (P49759 whole entry): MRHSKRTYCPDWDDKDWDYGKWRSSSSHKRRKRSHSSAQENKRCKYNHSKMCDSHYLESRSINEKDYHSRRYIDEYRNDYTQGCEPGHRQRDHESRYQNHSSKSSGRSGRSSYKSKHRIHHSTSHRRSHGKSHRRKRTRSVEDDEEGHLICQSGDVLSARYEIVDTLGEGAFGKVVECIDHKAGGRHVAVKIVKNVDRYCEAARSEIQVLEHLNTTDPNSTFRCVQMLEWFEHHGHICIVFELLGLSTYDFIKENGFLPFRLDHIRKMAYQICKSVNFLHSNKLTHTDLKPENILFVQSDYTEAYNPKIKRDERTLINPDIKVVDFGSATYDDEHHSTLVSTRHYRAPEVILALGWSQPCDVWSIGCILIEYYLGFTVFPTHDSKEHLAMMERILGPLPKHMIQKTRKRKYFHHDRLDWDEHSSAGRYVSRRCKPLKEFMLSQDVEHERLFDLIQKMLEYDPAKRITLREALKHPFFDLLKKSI
Method: as §1

[4] = molecular target: Dual specificity protein kinase CLK2 (Homo sapiens, UniProt P49760); assay: Selectivity screening
Sequence of Dual specificity protein kinase CLK2 (P49760 whole entry): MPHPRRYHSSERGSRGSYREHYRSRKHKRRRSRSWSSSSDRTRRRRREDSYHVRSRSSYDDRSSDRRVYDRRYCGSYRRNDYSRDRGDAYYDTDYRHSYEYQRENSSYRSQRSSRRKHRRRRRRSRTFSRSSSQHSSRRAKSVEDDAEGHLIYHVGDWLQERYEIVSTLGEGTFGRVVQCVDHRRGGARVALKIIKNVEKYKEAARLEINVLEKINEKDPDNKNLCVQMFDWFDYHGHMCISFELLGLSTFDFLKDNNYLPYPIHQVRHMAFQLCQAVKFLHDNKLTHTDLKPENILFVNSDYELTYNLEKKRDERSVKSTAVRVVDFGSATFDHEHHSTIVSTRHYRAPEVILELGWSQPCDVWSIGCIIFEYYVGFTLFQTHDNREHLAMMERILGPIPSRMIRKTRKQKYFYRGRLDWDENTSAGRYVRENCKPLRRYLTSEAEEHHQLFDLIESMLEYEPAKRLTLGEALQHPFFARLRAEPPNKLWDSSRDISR
Method: as §1

[5] = molecular target: T3, Dual specificity protein kinase TTK (Homo sapiens, UniProt P33981); assay: Selectivity screening
T3 sequence (P33981 whole entry): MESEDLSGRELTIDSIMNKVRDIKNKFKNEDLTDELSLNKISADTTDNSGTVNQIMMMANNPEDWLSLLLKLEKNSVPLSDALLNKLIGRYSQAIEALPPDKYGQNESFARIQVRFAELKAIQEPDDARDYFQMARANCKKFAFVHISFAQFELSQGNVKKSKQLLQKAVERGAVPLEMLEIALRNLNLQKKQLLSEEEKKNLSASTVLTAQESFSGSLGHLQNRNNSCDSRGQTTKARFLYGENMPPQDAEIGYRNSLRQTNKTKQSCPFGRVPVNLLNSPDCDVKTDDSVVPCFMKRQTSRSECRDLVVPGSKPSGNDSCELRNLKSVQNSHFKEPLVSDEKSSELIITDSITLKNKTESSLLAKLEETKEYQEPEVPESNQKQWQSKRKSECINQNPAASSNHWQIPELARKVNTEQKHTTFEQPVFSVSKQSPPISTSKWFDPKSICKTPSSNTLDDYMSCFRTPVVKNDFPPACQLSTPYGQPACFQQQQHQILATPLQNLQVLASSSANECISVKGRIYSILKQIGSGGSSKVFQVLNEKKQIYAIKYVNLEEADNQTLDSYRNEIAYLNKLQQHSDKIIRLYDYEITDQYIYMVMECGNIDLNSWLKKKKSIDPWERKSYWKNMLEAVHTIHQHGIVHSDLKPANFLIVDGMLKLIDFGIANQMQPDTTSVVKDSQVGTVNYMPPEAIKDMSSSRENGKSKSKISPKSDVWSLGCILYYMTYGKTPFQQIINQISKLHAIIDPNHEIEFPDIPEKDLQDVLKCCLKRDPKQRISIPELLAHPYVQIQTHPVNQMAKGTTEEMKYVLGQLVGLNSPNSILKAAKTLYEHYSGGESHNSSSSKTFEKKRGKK
Method: as §1

Misshapen-like kinase 1 = Misshapen-like kinase 1 (Homo sapiens, UniProt Q8N4C8); assay: Selectivity screening
Method: as §1

[6] = molecular target: Mitogen-activated protein kinase 10 (Homo sapiens, UniProt P53779); assay: Selectivity screening
Sequence of Mitogen-activated protein kinase 10 (P53779 whole entry): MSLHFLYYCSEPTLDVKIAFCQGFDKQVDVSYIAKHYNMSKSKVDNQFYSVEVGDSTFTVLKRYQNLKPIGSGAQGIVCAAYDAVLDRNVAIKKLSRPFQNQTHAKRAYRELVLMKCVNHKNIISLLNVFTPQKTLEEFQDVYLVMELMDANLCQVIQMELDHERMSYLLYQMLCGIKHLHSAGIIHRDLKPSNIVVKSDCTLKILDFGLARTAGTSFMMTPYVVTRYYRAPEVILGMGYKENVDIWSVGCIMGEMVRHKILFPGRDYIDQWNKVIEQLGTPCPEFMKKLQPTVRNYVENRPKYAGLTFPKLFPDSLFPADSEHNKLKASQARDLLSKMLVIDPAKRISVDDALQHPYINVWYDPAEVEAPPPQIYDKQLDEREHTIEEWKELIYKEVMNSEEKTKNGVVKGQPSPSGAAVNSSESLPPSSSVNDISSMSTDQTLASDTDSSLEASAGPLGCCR
Method: as §1

[7] = molecular target: T4, Mitogen-activated protein kinase 3 (Homo sapiens, UniProt P27361); assay: Selectivity screening
T4 sequence (P27361 whole entry): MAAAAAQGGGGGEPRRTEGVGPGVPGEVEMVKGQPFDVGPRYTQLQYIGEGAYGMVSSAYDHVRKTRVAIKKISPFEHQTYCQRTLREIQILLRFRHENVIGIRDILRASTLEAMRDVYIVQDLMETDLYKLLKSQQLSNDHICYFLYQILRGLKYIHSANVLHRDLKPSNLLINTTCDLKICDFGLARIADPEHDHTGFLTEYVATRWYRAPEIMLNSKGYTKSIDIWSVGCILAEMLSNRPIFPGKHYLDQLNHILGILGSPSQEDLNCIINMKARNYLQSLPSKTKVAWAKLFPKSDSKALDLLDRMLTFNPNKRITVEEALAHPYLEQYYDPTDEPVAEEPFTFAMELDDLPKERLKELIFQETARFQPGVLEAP
Method: as §1

[8] = molecular target: T5, Mitogen-activated protein kinase 8 [1-363] (Homo sapiens, UniProt P45983); assay: Selectivity screening
T5 construct: 1-363
T5 sequence (P45983 1-363): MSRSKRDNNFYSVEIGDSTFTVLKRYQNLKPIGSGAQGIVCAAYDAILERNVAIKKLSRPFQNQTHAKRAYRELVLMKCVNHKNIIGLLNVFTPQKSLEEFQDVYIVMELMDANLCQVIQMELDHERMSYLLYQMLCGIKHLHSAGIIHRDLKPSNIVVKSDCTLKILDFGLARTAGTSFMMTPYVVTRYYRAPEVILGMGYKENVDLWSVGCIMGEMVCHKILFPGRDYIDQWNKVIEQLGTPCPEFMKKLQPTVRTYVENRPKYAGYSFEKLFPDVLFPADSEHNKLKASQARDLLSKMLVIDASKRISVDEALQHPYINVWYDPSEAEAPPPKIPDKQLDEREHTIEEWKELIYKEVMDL
Method: as §1

[9] = molecular target: Mitogen-activated protein kinase 9 (Homo sapiens, UniProt P45984); assay: Selectivity screening
Sequence of Mitogen-activated protein kinase 9 (P45984 whole entry): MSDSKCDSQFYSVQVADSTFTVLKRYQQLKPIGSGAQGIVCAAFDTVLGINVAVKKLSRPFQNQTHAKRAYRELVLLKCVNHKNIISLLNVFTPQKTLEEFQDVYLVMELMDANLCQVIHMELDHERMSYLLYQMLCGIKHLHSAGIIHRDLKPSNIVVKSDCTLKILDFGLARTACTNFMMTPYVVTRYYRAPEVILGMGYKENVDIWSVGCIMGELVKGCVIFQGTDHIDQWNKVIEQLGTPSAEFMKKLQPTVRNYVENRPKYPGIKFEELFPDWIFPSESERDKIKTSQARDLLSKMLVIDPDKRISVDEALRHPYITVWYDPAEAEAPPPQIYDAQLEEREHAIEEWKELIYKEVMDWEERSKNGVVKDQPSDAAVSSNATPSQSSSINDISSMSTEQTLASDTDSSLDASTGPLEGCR
Method: as §1

[10] = molecular target: Mitogen-activated protein kinase kinase kinase kinase 4 (Homo sapiens, UniProt O95819); assay: Selectivity screening
Sequence of Mitogen-activated protein kinase kinase kinase kinase 4 (O95819 whole entry): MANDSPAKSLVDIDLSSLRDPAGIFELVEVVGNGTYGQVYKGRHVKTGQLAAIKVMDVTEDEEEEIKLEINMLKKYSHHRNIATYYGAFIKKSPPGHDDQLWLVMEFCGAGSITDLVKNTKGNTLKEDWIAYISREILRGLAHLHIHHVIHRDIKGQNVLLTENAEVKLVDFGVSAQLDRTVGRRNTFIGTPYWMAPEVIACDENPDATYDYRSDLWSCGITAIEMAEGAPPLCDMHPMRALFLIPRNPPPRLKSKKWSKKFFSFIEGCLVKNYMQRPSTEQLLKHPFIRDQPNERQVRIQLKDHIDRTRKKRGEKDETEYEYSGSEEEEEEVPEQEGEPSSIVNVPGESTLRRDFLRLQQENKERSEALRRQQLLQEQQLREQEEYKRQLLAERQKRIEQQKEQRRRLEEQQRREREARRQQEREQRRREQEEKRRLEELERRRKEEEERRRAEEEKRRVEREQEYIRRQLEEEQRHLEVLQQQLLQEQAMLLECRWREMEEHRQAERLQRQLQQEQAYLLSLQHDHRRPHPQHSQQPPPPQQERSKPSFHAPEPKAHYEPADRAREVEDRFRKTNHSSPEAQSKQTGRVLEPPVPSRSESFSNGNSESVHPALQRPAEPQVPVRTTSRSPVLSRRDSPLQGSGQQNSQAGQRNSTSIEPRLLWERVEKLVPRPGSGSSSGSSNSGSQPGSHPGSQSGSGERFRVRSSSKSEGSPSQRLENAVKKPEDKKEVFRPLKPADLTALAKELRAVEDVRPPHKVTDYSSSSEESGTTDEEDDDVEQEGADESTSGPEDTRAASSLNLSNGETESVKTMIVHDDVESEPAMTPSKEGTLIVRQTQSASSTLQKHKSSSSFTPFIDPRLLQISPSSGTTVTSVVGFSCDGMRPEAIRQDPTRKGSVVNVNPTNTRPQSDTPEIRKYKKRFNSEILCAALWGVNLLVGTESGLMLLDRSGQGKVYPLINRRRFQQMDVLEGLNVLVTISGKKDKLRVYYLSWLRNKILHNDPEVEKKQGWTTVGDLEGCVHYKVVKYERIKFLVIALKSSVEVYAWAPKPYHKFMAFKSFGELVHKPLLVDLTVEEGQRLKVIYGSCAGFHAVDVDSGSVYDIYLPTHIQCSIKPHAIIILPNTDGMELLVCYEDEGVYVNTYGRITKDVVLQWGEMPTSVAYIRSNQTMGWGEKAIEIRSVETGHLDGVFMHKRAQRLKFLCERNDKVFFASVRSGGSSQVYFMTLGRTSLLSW
Method: as §1

[11] = molecular target: T6, Serine/threonine-protein kinase 17A (Homo sapiens, UniProt Q9UEE5); assay: Selectivity screening
T6 sequence (Q9UEE5 whole entry): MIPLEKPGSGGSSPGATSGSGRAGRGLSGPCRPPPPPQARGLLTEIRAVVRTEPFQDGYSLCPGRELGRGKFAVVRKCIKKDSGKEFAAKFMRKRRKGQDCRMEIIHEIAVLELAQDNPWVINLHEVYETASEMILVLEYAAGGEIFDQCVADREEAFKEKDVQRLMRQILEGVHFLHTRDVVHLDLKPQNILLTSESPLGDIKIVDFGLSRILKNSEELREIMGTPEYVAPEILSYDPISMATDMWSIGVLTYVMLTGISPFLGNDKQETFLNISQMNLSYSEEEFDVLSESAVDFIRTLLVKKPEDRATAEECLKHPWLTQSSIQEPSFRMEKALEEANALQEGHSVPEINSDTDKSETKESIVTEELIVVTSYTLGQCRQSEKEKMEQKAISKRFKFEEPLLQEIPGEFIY
Method: as §1

[12] = molecular target: T7, Serine/threonine-protein kinase D1 (Homo sapiens, UniProt Q15139); assay: Selectivity screening
T7 sequence (Q15139 whole entry): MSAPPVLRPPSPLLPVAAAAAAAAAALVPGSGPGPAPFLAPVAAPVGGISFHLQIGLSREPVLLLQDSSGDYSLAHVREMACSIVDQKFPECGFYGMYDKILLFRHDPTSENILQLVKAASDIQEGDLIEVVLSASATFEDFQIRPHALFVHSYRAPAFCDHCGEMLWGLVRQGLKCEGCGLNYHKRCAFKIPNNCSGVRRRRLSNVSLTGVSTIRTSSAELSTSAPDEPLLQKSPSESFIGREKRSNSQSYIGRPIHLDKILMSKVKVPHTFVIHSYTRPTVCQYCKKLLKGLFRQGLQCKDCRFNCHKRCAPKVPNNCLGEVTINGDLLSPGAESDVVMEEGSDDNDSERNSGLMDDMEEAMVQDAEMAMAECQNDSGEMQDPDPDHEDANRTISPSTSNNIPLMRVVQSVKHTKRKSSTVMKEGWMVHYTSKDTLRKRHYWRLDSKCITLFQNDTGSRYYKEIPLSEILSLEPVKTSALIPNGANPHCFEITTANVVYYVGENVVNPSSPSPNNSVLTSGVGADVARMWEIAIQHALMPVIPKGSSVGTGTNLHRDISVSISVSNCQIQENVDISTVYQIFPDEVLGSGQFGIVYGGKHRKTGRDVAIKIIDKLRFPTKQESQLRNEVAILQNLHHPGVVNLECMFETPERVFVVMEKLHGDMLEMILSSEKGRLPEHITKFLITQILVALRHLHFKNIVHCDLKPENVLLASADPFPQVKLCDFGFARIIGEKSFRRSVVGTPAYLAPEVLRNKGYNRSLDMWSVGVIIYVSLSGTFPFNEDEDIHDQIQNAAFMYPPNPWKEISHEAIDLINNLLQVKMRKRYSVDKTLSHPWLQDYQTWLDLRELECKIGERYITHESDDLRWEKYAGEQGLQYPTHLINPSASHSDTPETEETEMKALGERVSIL
Method: as §1

[13] = molecular target: T8, Serine/threonine-protein kinase haspin [465-798] (Homo sapiens, UniProt Q8TF76); assay: Selectivity screening
T8 construct: 465-798
T8 sequence (Q8TF76 whole entry): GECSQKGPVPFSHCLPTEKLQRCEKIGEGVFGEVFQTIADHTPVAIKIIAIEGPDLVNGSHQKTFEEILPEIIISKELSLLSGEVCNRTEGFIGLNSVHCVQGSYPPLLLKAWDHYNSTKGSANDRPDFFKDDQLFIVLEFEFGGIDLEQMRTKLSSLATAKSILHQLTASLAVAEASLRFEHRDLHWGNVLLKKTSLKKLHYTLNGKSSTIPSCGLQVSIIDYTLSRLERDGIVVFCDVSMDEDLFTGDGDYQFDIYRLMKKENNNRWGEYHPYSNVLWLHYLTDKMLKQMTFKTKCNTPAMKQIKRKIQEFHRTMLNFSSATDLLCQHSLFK
Method: as §1

[14] = molecular target: T4, Mitogen-activated protein kinase 3; assay: ITC; settings: pH 7.5; 15 °C
Method: (§2) For ERK1 and ERK2, the buffer contained 20 mM HEPES (pH 7.5), 150 mM NaCl and 0.5 mM TCEP. For haspin, the buffer contained 20 mM HEPES (pH 7.5), 250 mM NaCl and 0.5 mM TCEP. Titration was performed at 15 °C by injecting 100 µM protein into a reaction cell containing the inhibitors (7 µM).

[15] = molecular target: T8, Serine/threonine-protein kinase haspin [465-798]; assay: ITC; settings: pH 7.5; 15 °C
Method: as §2

Question: Which IC50 (Aurora kinase C) does the source give for `O=C(Nc1ccc2[nH]nc(-c3ccncc3)c2c1)[C@H]1CCN(CC(=O)N2CCN(c3ccc(-c4ncccn4)cc3)CC2)C1` [SCH772984] here?
Answer: The IC50 was 580 nM.

Question: And the IC50 [1]?
Answer: The IC50 was greater than 10000 nM.

Question: What about the IC50 [2] of the same compound?
Answer: The IC50 was 304 nM.

Question: What about the IC50 [3] of the same compound?
Answer: Its IC50 is 508 nM.

Question: And the IC50 [4]?
Answer: Its IC50 is 104 nM.

Question: What about the IC50 [5] of the same compound?
Answer: The IC50 was 193 nM.

Question: And the IC50 (Misshapen-like kinase 1)?
Answer: Its IC50 is 942 nM.

Question: What about the IC50 [6] of the same compound?
Answer: The IC50 was 632 nM.

Question: And the IC50 [7]?
Answer: The IC50 was 8.3 nM.

Question: And the IC50 [8]?
Answer: The IC50 was 1080 nM.

Question: And the IC50 [9]?
Answer: The IC50 was 783 nM.

Question: And the IC50 [10]?
Answer: Its IC50 is 503 nM.

Question: And the IC50 [11]?
Answer: Its IC50 is 114 nM.

Question: What about the IC50 [12] of the same compound?
Answer: Its IC50 is 535 nM.

Question: And the IC50 [13]?
Answer: Its IC50 is 398 nM.

Question: What about the Kd [14] of the same compound?
Answer: Its Kd is 213 nM.

Question: And the Kd [15]?
Answer: Its Kd is 297 nM.
